ChEMBL document CHEMBL1201862, “PubChem BioAssay data set” (2004)
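Protocol summary: plate cells (96-well), add compound at 5 concentrations, incubate 48 h, interpolate endpoints linearly. GI50: concentration for 50% inhibition of growth.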 Activity calls are given as the source filed them. Rule as the data show it: active = GI50 up to about 1.1 µM and inactive = higher.

Columns and labels:
Assay in all cases: NCI-60 cell line screen, 48 h
[1] = system: OVCAR-8
[2] = system: UO-31
[3] = system: MDA-N
[4] = system: SK-MEL-28
[5] = system: HOP-62
[6] = system: SK-OV-3
[7] = system: MCF7
[8] = system: HCT-15
[9] = system: MOLT-4
[10] = system: SR
[11] = system: U-251
[12] = system: NCI/ADR-RES
[13] = system: HL-60
[14] = system: RXF 393
[15] = system: Malme-3M
[16] = system: A549
[17] = system: LOX IMVI
[18] = system: Hs-578T
[19] = system: T47D

With `O=C1c2ccccc2C2=Nc3ccncc3CN12` the GI50 [1] was > 100 µM (inactive), the GI50 [2] was > 100 µM (inactive) and the GI50 [3] was > 100 µM (inactive). The GI50 [4] was > 100 µM (inactive), the GI50 [5] was > 100 µM (inactive) and the GI50 [6] was > 100 µM (inactive). The GI50 [7] was > 100 µM (inactive), the GI50 [8] was > 100 µM and the GI50 [9] was > 100 µM (inactive). For the same compound, the GI50 [10] was > 100 µM (inactive), the GI50 [11] was > 100 µM (inactive) and the GI50 [12] was > 100 µM (inactive). The GI50 [13] was > 100 µM (inactive), the GI50 [14] was > 100 µM (inactive) and the GI50 [15] was > 100 µM (inactive). For the same compound, the GI50 [16] was > 100 µM (inactive).
`O=C1C(c2ccccc2)=C(c2ccccc2)C(c2ccc(Cc3ccc(C4=C(c5ccccc5)C(=O)C(c5ccccc5)=C4c4ccccc4)cc3)cc2)=C1c1ccccc1` was tested, and the GI50 [1] was > 100 µM (inactive), the GI50 [2] was > 100 µM (inactive) and the GI50 [17] was > 100 µM (inactive). The GI50 [5] was > 100 µM (inactive), the GI50 [6] was > 100 µM (inactive) and the GI50 [8] was > 100 µM. For the same compound, the GI50 [9] was > 100 µM (inactive), the GI50 [10] was > 100 µM (inactive) and the GI50 [11] was > 100 µM (inactive). The GI50 [13] was > 100 µM (inactive), the GI50 [14] was > 100 µM (inactive) and the GI50 [15] was 74.1 µM (inactive). The GI50 [16] was > 100 µM (inactive).
With `CC(=O)ON(OC(C)=O)c1ccc(C)cc1` the GI50 [18] was > 100 µM (inactive), the GI50 [1] was > 100 µM (inactive) and the GI50 [2] was > 100 µM (inactive). The GI50 [3] was > 100 µM (inactive), the GI50 [4] was > 100 µM (inactive) and the GI50 [5] was > 100 µM (inactive). The GI50 [6] was > 100 µM (inactive), the GI50 [7] was > 100 µM (inactive) and the GI50 [8] was > 100 µM. For the same compound, the GI50 [9] was > 100 µM (inactive), the GI50 [11] was > 100 µM (inactive) and the GI50 [12] was > 100 µM (inactive). The GI50 [14] was > 100 µM (inactive), the GI50 [15] was > 100 µM (inactive) and the GI50 [16] was > 100 µM (inactive).
With `COc1ccc2cc(NC(=O)N/N=C\c3ccc(Cl)cc3)ccc2c1` the GI50 [18] was 24 µM (inactive), the GI50 [1] was 96.8 µM (inactive) and the GI50 [2] was > 100 µM (inactive). The GI50 [3] was > 100 µM (inactive), the GI50 [17] was > 100 µM (inactive) and the GI50 [4] was > 100 µM (inactive). The GI50 [5] was 27.5 µM (inactive), the GI50 [6] was > 100 µM (inactive) and the GI50 [7] was > 100 µM (inactive). For the same compound, the GI50 [8] was > 100 µM, the GI50 [9] was > 100 µM (inactive) and the GI50 [10] was > 100 µM (inactive). The GI50 [11] was 41.2 µM (inactive), the GI50 [12] was 86.3 µM (inactive) and the GI50 [13] was > 100 µM (inactive). For the same compound, the GI50 [15] was 34 µM (inactive) and the GI50 [16] was > 100 µM (inactive).
With `COC(=O)/C(=N\N)C(C(=O)C(=O)Nc1cccc([N+](=O)[O-])c1)c1nc2ccc(C(=O)c3ccccc3)cc2nc1O` (stereo unspecified) the GI50 [18] was > 100 µM (inactive), the GI50 [1] was > 100 µM (inactive) and the GI50 [2] was 37.5 µM (inactive). The GI50 [3] was > 100 µM (inactive), the GI50 [17] was > 100 µM (inactive) and the GI50 [4] was > 100 µM (inactive). The GI50 [5] was 73.1 µM (inactive), the GI50 [6] was 93.8 µM (inactive) and the GI50 [7] was 54.2 µM (inactive). For the same compound, the GI50 [8] was > 100 µM, the GI50 [9] was 15 µM (inactive) and the GI50 [11] was > 100 µM (inactive). For the same compound, the GI50 [12] was > 100 µM (inactive), the GI50 [13] was 32.5 µM (inactive) and the GI50 [14] was 16.9 µM (inactive). For the same compound, the GI50 [16] was 61.4 µM (inactive).
For `N#Cc1c(-c2ccccc2)c(C#N)c(=O)n(NS(=O)(=O)c2ccccc2)c1O`, the GI50 [18] was > 100 µM (inactive), the GI50 [1] was > 100 µM (inactive) and the GI50 [3] was > 100 µM (inactive). The GI50 [17] was > 100 µM (inactive), the GI50 [4] was > 100 µM (inactive) and the GI50 [5] was > 100 µM (inactive). For the same compound, the GI50 [6] was > 100 µM (inactive), the GI50 [7] was > 100 µM (inactive) and the GI50 [8] was > 100 µM. For the same compound, the GI50 [9] was > 100 µM (inactive), the GI50 [11] was > 100 µM (inactive) and the GI50 [12] was > 100 µM (inactive). For the same compound, the GI50 [13] was > 100 µM (inactive), the GI50 [14] was > 100 µM (inactive) and the GI50 [15] was > 100 µM (inactive). The GI50 [16] was > 100 µM (inactive).
In the case of `Cc1cc2[nH]c3c(C#N)c(-c4ccccc4)c(CN4CCOCC4)c(=O)n3c2cc1C`, the GI50 [1] is reported as > 100 µM (inactive), the GI50 [2] is reported as > 100 µM (inactive) and the GI50 [3] is reported as > 100 µM (inactive). For the same compound, the GI50 [17] was > 100 µM (inactive), the GI50 [4] was > 100 µM (inactive) and the GI50 [5] was > 100 µM (inactive). For the same compound, the GI50 [19] was > 100 µM (inactive), the GI50 [6] was > 100 µM (inactive) and the GI50 [7] was > 100 µM (inactive). For the same compound, the GI50 [8] was > 100 µM, the GI50 [11] was > 100 µM (inactive) and the GI50 [12] was > 100 µM (inactive). The GI50 [14] was > 100 µM (inactive), the GI50 [15] was > 100 µM (inactive) and the GI50 [16] was > 100 µM (inactive).
With `Cc1cc(NS(=O)(=O)c2ccc(/N=N/c3c(O)c(C(=O)O)cc4ccccc34)cc2)nc(C)n1` the GI50 [18] was > 100 µM (inactive), the GI50 [1] was > 100 µM (inactive) and the GI50 [2] was > 100 µM (inactive). For the same compound, the GI50 [4] was > 100 µM (inactive), the GI50 [5] was > 100 µM (inactive) and the GI50 [6] was > 100 µM (inactive). For the same compound, the GI50 [7] was > 100 µM (inactive), the GI50 [8] was > 100 µM and the GI50 [9] was > 100 µM (inactive). For the same compound, the GI50 [10] was > 100 µM (inactive), the GI50 [11] was > 100 µM (inactive) and the GI50 [12] was > 100 µM (inactive). The GI50 [13] was > 100 µM (inactive), the GI50 [14] was > 100 µM (inactive) and the GI50 [15] was > 100 µM (inactive). For the same compound, the GI50 [16] was > 100 µM (inactive).
In the case of `Cc1nc2c(o1)C(=O)c1ccccc1/C2=N/c1ccccn1`, the GI50 [18] is reported as 14.8 µM (inactive), the GI50 [1] is reported as 15.4 µM (inactive) and the GI50 [2] is reported as 22.6 µM (inactive). For the same compound, the GI50 [3] was 17.3 µM (inactive), the GI50 [17] was 19.1 µM (inactive) and the GI50 [4] was 18.8 µM (inactive). For the same compound, the GI50 [5] was 18.4 µM (inactive), the GI50 [6] was > 100 µM (inactive) and the GI50 [7] was 17.7 µM (inactive). The GI50 [8] was 14 µM, the GI50 [9] was 17.7 µM (inactive) and the GI50 [10] was 24.1 µM (inactive). The GI50 [11] was 16.8 µM (inactive), the GI50 [12] was 15.8 µM (inactive) and the GI50 [13] was 15.5 µM (inactive). For the same compound, the GI50 [14] was > 100 µM (inactive), the GI50 [15] was 12.5 µM (inactive) and the GI50 [16] was 31.8 µM (inactive).
With `CC(=O)NNc1nc(C)c(C(=O)/C=C/c2ccccc2Cl)s1` the GI50 [1] was > 100 µM (inactive), the GI50 [2] was > 100 µM (inactive) and the GI50 [17] was > 100 µM (inactive). The GI50 [4] was > 100 µM (inactive), the GI50 [5] was > 100 µM (inactive) and the GI50 [6] was > 100 µM (inactive). The GI50 [8] was > 100 µM, the GI50 [9] was > 100 µM (inactive) and the GI50 [11] was > 100 µM (inactive). The GI50 [13] was > 100 µM (inactive), the GI50 [14] was > 100 µM (inactive) and the GI50 [15] was > 100 µM (inactive). The GI50 [16] was > 100 µM (inactive).
In the case of `CC(C)(CN1CCCCC1)C(/C=C/c1ccccc1)=N\NC(=O)N/N=C(/C=C/c1ccccc1)C(C)(C)CN1CCCCC1`, the GI50 [18] is reported as 2.67 µM (inactive), the GI50 [1] is reported as 1.78 µM (inactive) and the GI50 [2] is reported as 1.13 µM (inactive). For the same compound, the GI50 [3] was 1.63 µM (inactive), the GI50 [17] was 1.8 µM (inactive) and the GI50 [4] was 1.68 µM (inactive). For the same compound, the GI50 [5] was 1.85 µM (inactive), the GI50 [6] was 3.32 µM (inactive) and the GI50 [7] was 1.71 µM (inactive). For the same compound, the GI50 [8] was 1.37 µM, the GI50 [9] was 1.67 µM (inactive) and the GI50 [10] was 0.508 µM (active). The GI50 [11] was 1.63 µM (inactive), the GI50 [12] was 1.74 µM (inactive) and the GI50 [13] was 1.08 µM (active). For the same compound, the GI50 [15] was 2.04 µM (inactive) and the GI50 [16] was 2.43 µM (inactive).
For `COc1ccc2c(c1)CC1=C(O2)c2ccc(OC)cc2OC1`, the GI50 [1] was 29.9 µM (inactive), the GI50 [2] was 61.2 µM (inactive) and the GI50 [3] was 17.5 µM (inactive). The GI50 [17] was 13.6 µM (inactive), the GI50 [5] was 41.9 µM (inactive) and the GI50 [19] was 13.9 µM (inactive). For the same compound, the GI50 [6] was 90.4 µM (inactive), the GI50 [8] was 17.2 µM and the GI50 [9] was 33.4 µM (inactive). For the same compound, the GI50 [10] was 36.8 µM (inactive), the GI50 [11] was 17.5 µM (inactive) and the GI50 [12] was 34 µM (inactive). For the same compound, the GI50 [13] was > 100 µM (inactive), the GI50 [15] was 22.5 µM (inactive) and the GI50 [16] was 74.6 µM (inactive).
`COc1c(C)c(C/C=C(\C)CCCCO)c(OC)c2ccccc12` was tested, and the GI50 [18] was 30.2 µM (inactive), the GI50 [1] was 33.1 µM (inactive) and the GI50 [2] was 30.1 µM (inactive). For the same compound, the GI50 [3] was 42.2 µM (inactive), the GI50 [17] was 18.8 µM (inactive) and the GI50 [6] was > 100 µM (inactive). For the same compound, the GI50 [7] was 38.5 µM (inactive), the GI50 [8] was 31.6 µM and the GI50 [9] was 21.2 µM (inactive). The GI50 [10] was 26.3 µM (inactive), the GI50 [11] was 64.4 µM (inactive) and the GI50 [12] was 42.6 µM (inactive). For the same compound, the GI50 [14] was 79.6 µM (inactive) and the GI50 [16] was 36.1 µM (inactive).
